Test results as given in patent publication US11667602B2, “Compounds and their use” (AstraZeneca AB, priority 2020, dated 2023).
pEC50: −log10 of the molar value. Values after ≈ are worked out from the molar mass of the structure shown.

Legend:
[1] = Human Hepatocyte Stability (Test D); assay type: in vitro ADME; details: geometric mean if run multiple times; for hepatocyte CLint at 1 µM: human, cryopreserved pooled human hepatocytes (LiverPool 10-Donor)
How it was run: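 Intrinsic clearance (μL/min/10^6 cells), derived as kV/N from the log-linear loss of parent compound. Compound incubated at 37 °C with cryopreserved pooled human hepatocytes, 0.25×10^6 cells in 0.25 mL L-15; dosing solution 100 μM in acetonitrile. Singlicate incubations, cassette LC-MS; repeats reported as geometric mean.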

human RXFP1 = molecular target: T1, human RXFP1 (Homo sapiens, UniProt Q9HBX9); assay: RXFP1 Hu cAMP (Test A); assay type: cell-based; parameters: expressed in transfected cells; host or cells: Jump-In T-REx CHO-K1 cells (ThermoFisher), induced with 10 ng/ml doxycycline for 24 h; details: RXFP1 Hu cAMP; for pEC50: read-out: Test A EC50
T1 sequence (Q9HBX9 1-757): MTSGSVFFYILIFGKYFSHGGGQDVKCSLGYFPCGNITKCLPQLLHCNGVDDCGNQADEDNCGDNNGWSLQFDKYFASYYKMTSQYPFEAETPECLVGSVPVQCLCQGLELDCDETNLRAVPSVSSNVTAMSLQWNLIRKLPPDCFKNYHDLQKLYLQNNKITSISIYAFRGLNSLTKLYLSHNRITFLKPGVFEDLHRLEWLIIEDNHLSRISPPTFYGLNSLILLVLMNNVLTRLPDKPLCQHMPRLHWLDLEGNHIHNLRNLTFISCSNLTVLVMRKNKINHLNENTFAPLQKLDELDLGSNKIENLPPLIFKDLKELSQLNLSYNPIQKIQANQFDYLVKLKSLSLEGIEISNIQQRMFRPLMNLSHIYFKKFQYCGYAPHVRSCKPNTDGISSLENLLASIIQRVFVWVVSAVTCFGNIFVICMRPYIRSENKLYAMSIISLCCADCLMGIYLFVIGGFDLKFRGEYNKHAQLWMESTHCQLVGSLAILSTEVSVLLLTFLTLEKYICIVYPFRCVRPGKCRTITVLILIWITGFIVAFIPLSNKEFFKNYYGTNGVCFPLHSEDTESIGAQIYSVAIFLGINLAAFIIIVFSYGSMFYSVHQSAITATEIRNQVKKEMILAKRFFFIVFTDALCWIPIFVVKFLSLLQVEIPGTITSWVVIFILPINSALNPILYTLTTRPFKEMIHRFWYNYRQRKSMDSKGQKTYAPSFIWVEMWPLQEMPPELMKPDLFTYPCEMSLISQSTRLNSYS
How it was run: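 CHO-K1 (Jump-In T-REx), RXFP1 induced w/ 10 ng/ml doxycycline 24 h, cryopreserved. 0.5 mM IBMX final. cAMP by HTRF, 2 h RT, std curve.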

Solubility (Test F) = assay type: physicochemical; details: arithmetic mean if run multiple times
Description: The assay was conducted according to the Solubility Assay described in pages 164-167 of Wernevik, J. et al., “A Fully Integrated Assay Panel for Early Drug Metabolism and Pharmacokinetics Profiling”, Assay and Drug Development Technologies, 2020, 18(4), 157-179. Data are reported in Table 36 as solubility ([…]. Where the assay was run multiple times for the same compound, the arithmetic mean is reported.

[2] = Rat Hepatocyte Stability (Test E); assay type: in vitro ADME; details: geometric mean if run multiple times; for hepatocyte CLint: rat, hepatocytes
How it was run: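 Intrinsic clearance in rat hepatocytes, expressed as μl/min/10^6 cells, following the literature integrated DMPK panel method. Repeat determinations combined as geometric mean.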

[3] = Human Plasma Protein Binding (Test B); assay type: in vitro ADME; details: fraction unbound (fu)
How it was run: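 Values given as % free (fu) in human plasma, using the method of Wernevik et al. (2020). For compounds tested more than once, the arithmetic mean is given.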

[4] = Human Liver Microsomal Stability (Test C); assay type: in vitro ADME; details: for microsomal CLint: human, liver microsomes
How it was run: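 CLint (μl/min/mg protein) derived from compound depletion in human liver microsomes following a published standardized early-DMPK protocol; replicate determinations given as arithmetic mean.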

Row | SMILES | hepatocyte CLint at 1 µM [1] | Test A Sinf (human RXFP1) | pEC50 (human RXFP1) | solubility (Solubility (Test F)) | hepatocyte CLint [2] | Test B Human Plasma Protein Binding (% free) [3] | microsomal CLint [4] | Test D Human Hepatocyte Stability Clint ([1]; human hepatocytes) | Test E Rat Hepatocyte Stability Clint ([2]; rat hepatocytes) | Test C Human Liver Microsomal Stability Clint ([4]; human liver microsomes)
1 | COc1cc(F)c(O[C@H]2CC[C@@H](C(=O)O)CC2)cc1C(=O)N[C@@H]1CC(F)(F)C[C@@H]1C(=O)Nc1ccc(F)c(C(F)(F)F)c1 (racemic) [Example 493] | 2.4 µL/min/1e6 cells | 108% | 6.38 | 38 µM (≈ 23.6 µg/mL) | 4 µL/min/1e6 cells | 1.3 % free | < 3 µL/min/mg | – | – | –
2 | COc1cc(F)c(O[C@H]2CC[C@@](C)(C(N)=O)CC2)cc1C(=O)N[C@@H]1[C@H]2CC[C@H](C2)[C@@H]1C(=O)NCC1(F)CCOCC1 [Example 147, (1R,2S,3R,4S)-3-(5-(((1s,4S)-4-Carbamoyl-4-methylcyclohexyl)oxy)-4-fluoro-2-methoxybenzamido)-N-((4-fluorotetrahydro-2H-pyran-4-yl)methyl)bicyclo-[2.2.1]heptane-2-carboxamide] | – | 111% | < 5.38 | 1000 µM (≈ 578 µg/mL) | – | 36 % free | – | 6.1 μL/min/10^6 cells | 67 μL/min/10^6 cells | 88 µL/min/mg
3 | CCC1(CNC(=O)[C@H]2[C@@H]3CC[C@@H](C3)[C@H]2NC(=O)c2cc(O[C@H]3CC[C@@](C)(C(=O)O)CC3)c(F)cc2OC)CCC1 [Example 617] | 12 µL/min/1e6 cells | 101% | 7.30 | 810 µM (≈ 453 µg/mL) | 13 µL/min/1e6 cells | 2.4 % free | 120 µL/min/mg | – | – | –
4 | CCC(CC)[C@@H](C)NC(=O)[C@H]1[C@@H]2CC[C@@H](C2)[C@H]1NC(=O)c1cc(O[C@H]2CC[C@@](C)(C(=O)O)CC2)c(F)cc1OC (single isomer, unassigned) [Example 145, (1S,4s)-4-(5-(((1S,2R,3S,4R)-3-(((R*)-3-Ethylpentan-2-yl)carbamoyl)bicyclo[2.2.1]heptan-2-yl)carbamoyl)-2-fluoro-4-methoxyphenoxy)-1-methylcyclohexane-1-carboxylic acid] | 14 µL/min/1e6 cells | 95% | 5.89 | 870 µM (≈ 488 µg/mL) | 53 µL/min/1e6 cells | 0.81 % free | 180 µL/min/mg | – | – | –
5 | COc1cc(F)c(O[C@H]2CC[C@@](C)(C(=O)O)CC2)cc1C(=O)N[C@@H]1[C@H]2CC[C@H](C2)[C@@H]1C(=O)N[C@@H]1CCCN(S(=O)(=O)C(F)(F)F)C1 [Example 604] | 13 µL/min/1e6 cells | 105% | 6.96 | 10 µM (≈ 6.78 µg/mL) | 14 µL/min/1e6 cells | 6.7 % free | 110 µL/min/mg | – | – | –
6 | COc1cc(F)c(O[C@H]2CC[C@@](C)(C(=O)O)CC2)cc1C(=O)NC1CCOCC1C(=O)Nc1cccc(S(=O)(=O)C(F)(F)F)c1 (single isomer, unassigned) [Example 518, (1R,4s)-4-(2-Fluoro-4-methoxy-5-(((3S*,4S*)-3-((3-((trifluoromethyl)sulfonyl)phenyl)carbamoyl)tetrahydro-2H-pyran-4-yl)carbamoyl)phenoxy)-1-methylcyclohexane-1-carboxylic acid] | 5 µL/min/1e6 cells | 95% | 6.89 | 990 µM (≈ 654 µg/mL) | 13 µL/min/1e6 cells | 2.1 % free | 22 µL/min/mg | – | – | –
7 | COc1cc(F)c(O[C@H]2CC[C@@H](C(=O)O)CC2)cc1C(=O)N[C@@H]1CCC[C@@H]1C(=O)Nc1ccc(F)c(C(F)(F)F)c1 [Example 492] | 18 µL/min/1e6 cells | 106% | 6.80 | 1000 µM (≈ 585 µg/mL) | 19 µL/min/1e6 cells | 1.8 % free | 36 µL/min/mg | – | – | –
8 | COc1cc(F)c(-c2cccc(C(=O)O)c2)cc1C(=O)N[C@H]1[C@@H](C(=O)Nc2ccc(F)c(S(=O)(=O)C(F)(F)F)c2)[C@@H]2C=C[C@H]1C2 (racemic) [Example 297] | 9.4 µL/min/1e6 cells | 98% | 6.92 | 8 µM (≈ 5.2 µg/mL) | 12 µL/min/1e6 cells | <0.33 % free | 9.1 µL/min/mg | – | – | –
9 | COc1cc(C#N)c(O[C@H]2CC[C@@](C)(C(=O)O)CC2)cc1C(=O)N[C@@H]1[C@@H]2CC[C@@H](C2)[C@@H]1C(=O)NCC(C)(C)C(F)(F)F [Example 502, (1S,4s)-4-(2-Cyano-4-methoxy-5-(((1R,2R,3S,4S)-3-((3,3,3-trifluoro-2,2-dimethylpropyl)carbamoyl)bicyclo[2.2.1]heptan-2-yl)carbamoyl)phenoxy)-1-methylcyclohexane-1-carboxylic acid] | 5.3 µL/min/1e6 cells | 106% | 8.07 | 910 µM (≈ 540 µg/mL) | 7.2 µL/min/1e6 cells | 4 % free | < 4.5 µL/min/mg | – | – | –
10 | COc1cc(F)c(-c2ccc(C(=O)O)cc2)cc1C(=O)N[C@H]1[C@@H](C(=O)Nc2ccc(F)c(S(=O)(=O)C(F)(F)F)c2)[C@@H]2C=C[C@H]1C2 (racemic) [Example 296, rac-2′-Fluoro-5′-(((1R,2R,3S,4S)-3-((4-fluoro-3-((trifluoromethyl)sulfonyl)phenyl)carbamoyl)bicyclo[2.2.1]hept-5-en-2-yl)carbamoyl)-4′-methoxy-[1,1′-biphenyl]-4-carboxylic acid] | 22 µL/min/1e6 cells | 98% | 6.66 | 640 µM (≈ 416 µg/mL) | 17 µL/min/1e6 cells | <0.32 % free | 15 µL/min/mg | – | – | –
11 | COc1cc(C#N)c(O[C@H]2CC[C@@](C)(C(=O)O)CC2)cc1C(=O)N[C@@H]1[C@H]2CC[C@H](C2)[C@@H]1C(=O)NC12CC(C1)C2 [Example 141, (1S,4s)-4-(5-(((1S,2R,3S,4R)-3-(Bicyclo[1.1.1]pentan-1-ylcarbamoyl)-bicyclo[2.2.1]heptan-2-yl)carbamoyl)-2-cyano-4-methoxyphenoxy)-1-methylcyclohexane-1-carboxylic acid] | < 1 µL/min/1e6 cells | 107% | 7.13 | 920 µM (≈ 493 µg/mL) | 17 µL/min/1e6 cells | 16 % free | 8.3 µL/min/mg | – | – | –
